# Experimental data reported in US4022791A (priority 1975, dated 1977).
# What was measured:
# [1] = system: mice; conditions: mouse, in vivo, ip; also: test concentration or dose not given here
# [2] = system: mice; experiment: animal or person; type: in vivo, mouse; conditions: mouse, in vivo, ip
# [3] = system: Rats; parameters: Rat Jump .5 hr (current at which the animal first jumps) / Rat Jump .5 hr, second value printed in parentheses / Rat Jump 2 hr (current at which the animal first jumps): unit not given here; conditions: in vivo, ip
# [4] = system: mice; conditions: mouse, in vivo, ip; remark: listed apart in the source; also: test concentration or dose not given here
Structure (SMILES),Hot Plate 2 hr (percentage of mice showing analgesia) [1],Hot Plate .5 hr (percentage of mice showing analgesia) [1],Tail Pinch 2 hr (percentage of mice showing analgesia) [2],Tail Pinch .5 hr (percentage of mice showing analgesia) [2],Rat Jump 2 hr (current at which the animal first jumps) [3],Rat Jump .5 hr (current at which the animal first jumps) [3],Tail Flick 2 hr (percentage of analgesia response) [4],Tail Flick .5 hr (percentage of analgesia response) [4]
CCC(=O)OC1CCN(CC2=Cc3c(Cl)ccc(OC)c3CC2)CC1,0,0,0,0,1.2,1.2,0,20
COc1ccc(Cl)c2c1CCC(CN1CCC(O)CC1)=C2,0,0,0,0,1.2,1.2,0,0
COc1ccc(Cl)c2c1CCC(CN1CCC(C(N)=O)CC1)=C2,70,90,0,0,0.6,0.6,0,70
COc1ccc(Cl)c2c1CCC(CN1CCC(C(N)=O)(N3CCCCC3)CC1)=C2,–,–,–,–,1.6,1.2,–,–
COc1ccc(Cl)c2c1CCC(CN1CCC(C)CC1)=C2,0,10,0,0,1.2,1.2,0,0
COc1ccc(Cl)c2c1CCC(CN1CCN(CCO)CC1)=C2,20,50,0,40,1.2,1.2,0,10
COc1ccc(Cl)c2c1CCC(CN1CCC(O)(c3ccccc3)CC1)=C2,0,50,0,0,1.2,1.2,0,30
COc1ccc(N2CCN(CC3=Cc4c(Cl)ccc(OC)c4CC3)CC2)cc1,0,0,0,0,1.2,1.2,0,0
CCOC(=O)N1CCN(CC2=Cc3c(Cl)ccc(OC)c3CC2)CC1,40,70,0,0,1.2,1.2,0,40
CNC(=O)C1CCN(CC2=Cc3c(Cl)ccc(OC)c3CC2)CC1,0,60,0,0,1.2,1.2,0,40
COc1ccc(Cl)c2c1CCC(CN1CCCC(C(N)=O)C1)=C2 (stereo not drawn),0,0,0,0,2.2,1.6,0,0
COc1ccc(Cl)c2c1CCC(CN1CCC(O)(c3ccc(Cl)cc3)CC1)=C2,0,20,0,0,1.6,1.2,0,0
